# Assay results: patent publication US8455497B2, “Inhibitors of aspartyl protease” (Vertex Pharmaceuticals Incorporated, priority 1999, dated 2013)
# Where two headings read alike, the source gives them in different places.
# Key:
# HIV-1 (strain IIIB) = test: Antiviral activity assay in MT4 cells (propidium iodide based); type: cell-based
# Procedure: Antiviral Activity Assay in MT4 Cells
# (§1) Aliquots of the test compounds were serially diluted in medium (RPMI 1640, 10% fetal calf serum (FCS), and gentamycin) in 96-well plates (Costar 3598) using a Cetus Pro/Pette. Exponentially growing MT4 cells were harvested and centrifuged at 1000 rpm for 10 min in a Jouan centrifuge (model CR 4 12). Cell pellets were resuspended in fresh medium (RPMI 1640, 20% FCS, 20% IL-2, and gentamycin) to a density of 5×10^5 cells/ml. Cell aliquots were infected by the addition of HIV-1 (strain IIIB) diluted to give a viral multiplicity of infection of 100×TCID50. A similar cell aliquot was diluted with medium to provide a mock-infected control. Cell infection was allowed to proceed for 1 hr at 37° in a tissue culture incubator with humidified 5% CO2 atmosphere. After the 1 hr incubation the virus/cell suspensions were diluted 6-fold with fresh medium, and 125 μl of the cell suspension was added to each well of the plate containing pre-diluted compound. Plates were then placed in a tissue culture incubator with humidified 5% CO2 for 5 days. At the end of the incubation period, 27 μl of 5% Nonidet-40 was added to each well of the incubation plate. After thorough mixing with a Costar multitip pipetter, 60 μl of the mixture was transferred to filter-bottomed 96-well plates. The plates were analyzed in an automated assay instrument (Screen Machine, Idexx Laboratories). The assay makes use of a propidium iodide dye to estimate the DNA content of each well.
# The anti-viral potency in MT-4 cells of the compounds set forth in Tables 1 and 2 was determined using the above technique.
# [1] = system: EP13 multi protease inhibitor resistant virus; test: Anti-viral activity against resistant virus EP13 in MT4 cells; type: cell-based, HIV-1
# Procedure: as §1, with “Exponentially” for “Aliquots of the test compounds were serially diluted in medium (RPMI 1640, 10% fetal calf serum (FCS), and gentamycin) in 96-well plates (Costar 3598) using a Cetus Pro/Pette. Exponentially”, “Cell pellets were resuspended in fresh medium (RPMI 1640, 20% FCS, 20% IL-2, and gentamycin) to a density of 5×10^5 cells/ml.” left out, “A similar cell aliquot was diluted with medium to provide a mock-infected control.” left out
# (§2) Anti-Viral Activity Against Resistant Viruses
# EP13 and DS45701, two multi protease inhibitor resistant viruses were used to assess potency against mutant viruses. These viruses contain the following mutations relative to the consensus sequence of wild type virus:
# EP13: Protease amino acid sequence: M46I, L63P, A71V, V82F/L, I84V; No reverse transcriptase mutations.
# [2] = system: D545701-14 multi protease inhibitor resistant virus; test: Anti-viral activity against resistant virus D545701-14 in MT4 cells; type: cell-based, HIV-1
# Procedure: as §1, with “Exponentially” for “Aliquots of the test compounds were serially diluted in medium (RPMI 1640, 10% fetal calf serum (FCS), and gentamycin) in 96-well plates (Costar 3598) using a Cetus Pro/Pette. Exponentially”, “Cell pellets were resuspended in fresh medium (RPMI 1640, 20% FCS, 20% IL-2, and gentamycin) to a density of 5×10^5 cells/ml.” left out, “A similar cell aliquot was diluted with medium to provide a mock-infected control.” left out
# as §2
# EP13 and DS45701, two multi protease inhibitor resistant viruses were used to assess potency against mutant viruses. These viruses contain the following mutations relative to the consensus sequence of wild type virus: […]
# [3] = wild type HIV-1 virus, MT4 cells, read-out: Wildtype virus - IC50
# [4] = D545701-14 multi protease inhibitor resistant virus, MT4 cells, read-out: D545701-14 mutant - IC50
# [5] = Human immunodeficiency virus 1, IIIB, wild type HIV-1 virus, MT4 cells, read-out: Wildtype virus - IC50
# [6] = MT-4 cells, HIV-1 strain IIIB, 5 days, read-out: IC50 (Antiviral Activity of Compounds of the Invention)
smiles,measurement,setting,value
CC(C)CN(C[C@@H](O)[C@H](Cc1ccc(OCc2ccc(F)cc2)cc1)NC(=O)O[C@H]1CO[C@H]2OCC[C@H]21)S(=O)(=O)c1ccc2c(c1)OCO2 [Compound 371],IC50,HIV-1 (strain IIIB); [3],10 to 100 nM
same,IC50,"[1]; EP13 multi protease inhibitor resistant virus, MT4 cells, read-out: EP13 mutant IC50",1 to 10 nM
CC(C)CN(C[C@@H](O)[C@H](Cc1ccc(OCc2noc(-c3ccccc3)n2)cc1)NC(=O)O[C@H]1CO[C@H]2OCC[C@H]21)S(=O)(=O)c1ccc2c(c1)OCO2 [Compound 375],IC50,HIV-1 (strain IIIB); [3],1 to 10 nM
same,IC50,[2]; [4],10 to 100 nM
"COc1ccccc1-c1nc(COc2ccc(C[C@H](NC(=O)O[C@H]3CO[C@H]4OCC[C@H]43)[C@H](O)CN(CC(C)C)S(=O)(=O)c3ccc4c(c3)OCO4)cc2)no1 [Compound 390, (3R,3aS,6aR)-hexahydrofuro[2,3-b]furan-3-yl (1S,2R)-3-[(1,3-benzodioxol-5-ylsulfonyl)(isobutyl)amino]-2-hydroxy-1-(4-{[5-(2-methoxyphenyl)-1,2,4-oxadiazol-3-yl]methoxy}benzyl) propylcarbamate]",IC50,HIV-1 (strain IIIB); [3],1 to 10 nM
same,IC50,[2]; [4],10 to 100 nM
"CC(C)CN(C[C@@H](O)[C@H](Cc1ccc(OS(=O)(=O)c2ccc([N+](=O)[O-])cc2)cc1)NC(=O)O[C@@H]1CO[C@H]2OCC[C@H]21)S(=O)(=O)c1ccc([N+](=O)[O-])cc1 [Compound 297, 4-((2S,3R)-2-({[(3S,3aS,6aR)-hexahydrofuro[2,3-b]furan-3-yloxy]carbonyl}amino)-3-hydroxy-4-{isobutyl[(4-nitrophenyl)sulfonyl]amino}butyl)phenyl 4-nitrobenzenesulfonate]",IC50,HIV-1 (strain IIIB); [5],10 to 100 nM
same,IC50,"[1]; Human immunodeficiency virus 1, MT4, read-out: EP13 mutant IC50, EP13 multi protease inhibitor resistant virus, MT4 cells",10 to 100 nM
CC(C)CN(C[C@@H](O)[C@H](Cc1ccc(OCCCNC(=O)c2ccccc2)cc1)NC(=O)O[C@H]1CO[C@H]2OCC[C@H]21)S(=O)(=O)c1ccc2c(c1)OCO2 [Compound 233],IC50,HIV-1 (strain IIIB); [3],1 to 10 nM
same,IC50,[2]; [4],10 to 100 nM
"CC(C)(C)NC(=O)[C@@H]1C[C@@H]2CCCC[C@@H]2CN1C[C@@H](O)[C@H](Cc1ccccc1)NC(=O)[C@H](CC(N)=O)NC(=O)c1ccc2ccccc2n1 [Saguinavir, reference compound]",IC50,"[2]; D545701-14 mutant virus, read-out: Reference data for protease inhibitors (D545701-14)",900 nM
CC(C)CN(C[C@@H](O)[C@H](Cc1ccc(OCCc2ccccn2)cc1)NC(=O)O[C@H]1CO[C@H]2OCC[C@H]21)S(=O)(=O)c1ccc2c(c1)OCO2 [Compound 212],IC50,HIV-1 (strain IIIB); [3],1 to 10 nM
same,IC50,[2]; [4],10 to 100 nM
CC(C)CN(C[C@@H](O)[C@H](Cc1ccc(OCc2ccoc2)cc1)NC(=O)O[C@H]1CO[C@H]2OCC[C@H]21)S(=O)(=O)c1ccc2c(c1)OCO2 [Compound 210],IC50,HIV-1 (strain IIIB); [3],1 to 10 nM
same,IC50,[2]; [4],10 to 100 nM
CC(C)CN(C[C@@H](O)[C@H](Cc1ccc(OCc2cccc(C(F)(F)F)c2)cc1)NC(=O)O[C@H]1CO[C@H]2OCC[C@H]21)S(=O)(=O)c1ccc2c(c1)OCO2 [Compound 373],IC50,HIV-1 (strain IIIB); [3],1 to 10 nM
same,IC50,[2]; [4],10 to 100 nM
CSc1ccc(COc2ccc(C[C@H](NC(=O)O[C@H]3CO[C@H]4OCC[C@H]43)[C@H](O)CN(CC(C)C)S(=O)(=O)c3ccc4c(c3)OCO4)cc2)cc1 [Compound 369],IC50,HIV-1 (strain IIIB); [5],1 to 10 nM
"COCCN(CCOC)CCOc1ccc(CC(NC(=O)OC2CCOC2)C(O)CN(CC(C)C)S(=O)(=O)c2cccc(N)c2)cc1 (stereo not shown) [Compound 22, bis-THF m-aminophenylsulfonamide benzyl ether]",IC50,HIV-1 (strain IIIB); [6],10 to 100 nM
CC(C)CN(C[C@@H](O)[C@H](Cc1ccc(OCc2ccc(C(F)(F)F)cc2)cc1)NC(=O)O[C@H]1CO[C@H]2OCC[C@H]21)S(=O)(=O)c1ccc2c(c1)OCO2 [Compound 372],IC50,HIV-1 (strain IIIB); [3],1 to 10 nM
same,IC50,[2]; [4],10 to 100 nM
CC(C)(CCC#N)CN(CC(O)C(Cc1ccc(OCc2ccccc2)cc1)NC(=O)OC1COC2OCCC12)S(=O)(=O)c1ccc2c(c1)OCO2 (stereo not shown) [Compound 72],IC50,HIV-1 (strain IIIB); [6],1 to 10 nM
"CC(C)CN(C[C@@H](O)[C@H](Cc1ccc(OCCCCN)cc1)NC(=O)O[C@H]1CO[C@H]2OCC[C@H]21)S(=O)(=O)c1ccc2c(c1)OCO2 [Compound 224, (3R,3aS,6aR)-hexahydrofuro[2,3-b]furan-3-yl (1S,2R)-1-[4-(4-aminobutoxy)benzyl]-3-[(1,3-benzodioxol-5-ylsulfonyl) (isobutyl)amino]-2-hydroxypropylcarbamate]",IC50,HIV-1 (strain IIIB); [5],10 to 100 nM
"Cc1c(O)cccc1C(=O)N[C@@H](CSc1ccccc1)[C@H](O)CN1C[C@H]2CCCC[C@H]2C[C@H]1C(=O)NC(C)(C)C [Nelfinavir, reference compound]",IC50,"[2]; Human immunodeficiency virus 1, MT4, read-out: Reference data for protease inhibitors (D545701-14), D545701-14 mutant virus",690 nM
CC(C)CN(C[C@@H](O)[C@H](Cc1ccc(OCCCNC(=O)C(C)(C)C)cc1)NC(=O)O[C@H]1CO[C@H]2OCC[C@H]21)S(=O)(=O)c1ccc2c(c1)OCO2 [Compound 232],IC50,HIV-1 (strain IIIB); [3],1 to 10 nM
"Cc1cccc(C)c1OCC(=O)N[C@@H](Cc1ccc(OCc2ccccc2)cc1)[C@H](O)CN(CC(C)C)S(=O)(=O)c1ccc2c(c1)OCO2 [Compound 325, N-{(1S,2R)-3-[(1,3-Benzodioxol-5-ylsulfonyl)(isobutyl)amino]-1-[4-(benzyloxy)benzyl]-2-hydroxypropyl}-2-(2,6-dimethylphenoxy)acetamide]",IC50,HIV-1 (strain IIIB); [5],10 to 100 nM
"CNC(=O)OCCCC(C)(C)CN(C[C@@H](O)[C@H](Cc1ccc(OCc2ccccc2)cc1)NC(=O)OC1COCOC1)S(=O)(=O)c1ccc2c(c1)OCO2 [Compound 363, 1,3-Dioxan-5-yl N-((1S,2R)-1-[(4-benzyloxy)benzyl-3-[2,2-dimethyl-5-(N′-methylcarbamoyloxy)-pentyl][(3,4-methylenedioxyphenyl)sulfonyl]amino-2-hydroxypropyl) carbamate]",IC50,HIV-1 (strain IIIB); [5],10 to 100 nM
COCCN(CCOC)CCOc1ccc(CC(NC(=O)OC2COC3OCCC23)C(O)CN(CC(C)(C)CCC#N)S(=O)(=O)c2ccc3c(c2)OCO3)cc1 (stereo not shown) [Compound 73],IC50,HIV-1 (strain IIIB); [6],10 to 100 nM
CC(C)CN(C[C@@H](O)[C@H](Cc1ccc(OCCc2cccs2)cc1)NC(=O)O[C@H]1CO[C@H]2OCC[C@H]21)S(=O)(=O)c1ccc2c(c1)OCO2 [Compound 209],IC50,HIV-1 (strain IIIB); [3],1 to 10 nM
CC(C)CN(CC(O)C(Cc1ccc(OCCN2CCOCC2)cc1)NC(=O)OC(C)(C)C)S(=O)(=O)c1cccc(N)c1 (stereo not shown) [Compound 15],IC50,HIV-1 (strain IIIB); [6],> 100 nM
"CC(C)CN(C[C@@H](O)[C@H](Cc1ccc(OCCn2cccn2)cc1)NC(=O)O[C@H]1CO[C@H]2OCC[C@H]21)S(=O)(=O)c1ccc2c(c1)OCO2 [Compound 57, Bis-THF Methylenedioxybenzenesulfonamide Ethylpyrazole Tethered Product]",IC50,"HIV-1 (strain IIIB); Human immunodeficiency virus 1, MT4, 120 h, MT-4 cells, HIV-1 strain IIIB, 5 days, read-out: IC50 (Antiviral Activity of Compounds of the Invention)",1 to 10 nM
COCCN(CCOC)CCOc1ccc(CC(NC(=O)OC2COC3OCCC23)C(O)CN(CC(C)C)S(=O)(=O)c2cccc(N)c2)cc1 (stereo not shown) [Compound 34],IC50,HIV-1 (strain IIIB); [6],> 100 nM
CC(C)CN(C[C@@H](O)[C@H](Cc1ccc(OCCCCNS(C)(=O)=O)cc1)NC(=O)O[C@H]1CO[C@H]2OCC[C@H]21)S(=O)(=O)c1ccc2c(c1)OCO2 [Compound 252],IC50,HIV-1 (strain IIIB); [3],1 to 10 nM
CC(C)CN(C[C@@H](O)[C@H](Cc1ccc(OCc2ccc(-c3csnn3)cc2)cc1)NC(=O)O[C@H]1CO[C@H]2OCC[C@H]21)S(=O)(=O)c1ccc2c(c1)OCO2 [Compound 374],IC50,HIV-1 (strain IIIB); [3],1 to 10 nM
COCCN(CCOC)CCOc1ccc(CC(NC(=O)OC2CCOC2)C(O)CN(CC(C)(C)CCC#N)S(=O)(=O)c2ccc(N)cc2)cc1 (stereo not shown) [Compound 70],IC50,HIV-1 (strain IIIB); [6],> 100 nM
CC(C)CN(CC(O)C(Cc1ccc(OCCN2CCOCC2)cc1)NC(=O)OC(C)(C)C)S(=O)(=O)c1ccc(N)cc1 (stereo not shown) [Compound 10],IC50,HIV-1 (strain IIIB); [6],> 100 nM
COCCN(CCOC)CCOc1ccc(CC(NC(=O)OC2COC3OCCC23)C(O)CN(CC(C)(C)CCC#N)S(=O)(=O)c2ccc(N)cc2)cc1 (stereo not shown) [Compound 74],IC50,HIV-1 (strain IIIB); [6],> 100 nM
